From article PMC11429909, “Protein Structure Inspired Discovery of a Novel Inducer of Anoikis in Human Melanoma” (Cancers, 2024)

Assays:
Type in all cases: cell-based, human
pan-cadherin [1] = test: Western blot for pan-cadherin, M14
Method: (§1) After treatment of M14 and SK-MEL-5 cells with different concentrations of Dxr2-017 or vehicle for 3 or 8 days, as denoted, cell images were captured at 20X in a transmitted light channel using the EVOS™ M5000 Imaging System (Invitrogen (Waltham, MA, USA)). Western blots were performed as previously described by us. Briefly, cells were collected and lysed using RIPA lysis buffer (25 mM Tris-HCl pH 7.6, 150 mM NaCl, 1% NP-40, 1% sodium deoxycholate, and 0.1% SDS; Thermo Scientific^TM (Waltham, MA, USA), #89900), supplemented with protease and phosphatase inhibitor cocktail (Thermo Scientific^TM, #78442) and 1 mM of PMSF. Resultant Western blots were probed using antibodies against cleaved caspase 3 (Cell Signaling Technology (Danvers, MA, USA), #9664), pan-cadherin (Cell Signaling Technology, #4068), and β-actin (Santa Cruz (Santa Cruz, CA, USA), #sc-47778).
(§2) These findings led us to compare cleaved caspase 3 between adherent cells and floating cells. Cleaved caspase 3 is an indicator of programmed cell death, and its triggering by loss of cell attachment is an established means of detecting anoikis. Adherent cells were prepared as above. […]

M14 = test: Eight-day colony formation assay, melanoma M14
Method: (§3) In addition to screens, eight-day colony formation assays were conducted for certain experiments, as denoted. When measuring the effect of 5-fluorouracil (5FU) on HT29 colon cancer cells, the following final 5FU concentrations were examined: 0 (DMSO only), 0.0012, 0.012, 0.12, 0.82, 5.7, 20, and 40 µM. When measuring the effect of Dxr2-017 on melanoma cell growth, the following concentrations were examined: 0 (DMSO only), 0.001, 0.01, 0.1, 1.0, and 10.0 µM. Melanoma studies were performed on M14 and SK-MEL-5 human melanoma cell lines. For each Dxr2-017 concentration for each cell line, there were N = 3 replicates, and experiments were performed a total of 3 separate times (each with N = 3 replicates). The IC50 values were calculated using nonlinear regression analysis. Data from individual experiments were log-transformed and fitted to a dose–response curve using the four-parameter logistic model of GraphPad Prism 10 software. The IC50 values were determined using the dose–response inhibition function. IC50 values from each of three different experiments were used to calculate mean ± SEM.

NCI-60 cell lines = test: NCI-60 cell line screen; conditions: 48 h at 10 µM
Method: The above findings support the importance of Dxr2 and FolC2 sites, and of Dxr2-017 and FolC2-001 compounds, respectively. The NCI-60 cell line screen evaluates compound growth inhibition and cell toxicity in a highly standardized manner across 60 different cell lines. Dxr2-017 and FolC2-001 were evaluated in this assay (Figure S6). NCI-60 screens evaluate cells treated for 48 h at 10 µM with a given compound. […] Of high interest, in the NCI-60 screen, Dxr2-017 had relatively high activity against melanoma cell lines, inducing cell death in five cell lines ranging from 25% to 65%, and inhibiting growth in four cell lines ranging from 76% to 96%. Its impact on cell death represented the most striking relative difference in response across cell lines.

SK-MEL-5 = test: Eight-day colony formation assay, melanoma SK-MEL-5
Method: as §3

pan-cadherin [2] = test: Western blot for pan-cadherin, SK-MEL-5
Method: as §1, §2

IC50 (M14; Homo sapiens, 192 h, M14 melanoma, mean ± SEM of three experiments): 0.012 µM
IC50 (SK-MEL-5; Homo sapiens, 192 h, SK-MEL-5 melanoma, mean ± SEM of three experiments): 0.051 ± 0.011 µM
SMILES: c1ccc2sc(-c3ccc(CNc4ccc5nnnn5n4)o3)nc2c1 [Dxr2-017]
cadherin expression (pan-cadherin [1]): decreased cadherin expression in a concentration-dependent manner
fold efficacy relative to bone marrow stem cells treated at 40 µM (M14; M14 IC50 versus eight-day bone marrow treatment at 40 µM): over 2100 fold
activity in the NCI-60 screen (in words) (NCI-60 cell lines): activity against HT29, MDA-MB-231, and H226
fold efficacy relative to bone marrow stem cells treated at 40 µM (SK-MEL-5; SK-MEL-5 IC50 versus eight-day bone marrow treatment at 40 µM): > 750 fold
cadherin expression (pan-cadherin [2]): decreased cadherin expression in a concentration-dependent manner
